Test system: 463943-066-T-J2-PDC complex spheroid growth
Assay: Anticancer human tumor 463943-066-T-J2-PDC patient-derived colon adenocarcinoma cell line growth inhibition [Asc]
Conditions: for IC50: curve of first compound; for viability, T/C: stronger effect = lower value
Procedure: Multicellular complex tumor spheroid response to apoptosis pathway targeting inhibitors Alrizomadlin, Pelcitoclax, and Dasminapant in combination with a variety of drugs and investigational agents in selected tumor cell lines
The MDM2 inhibitor alrizomadlin, the Bcl-2/Bcl-xL inhibitor pelcitoclax, and the IAPs inhibitor dasminapant were evaluated both individually and in combination with standard of care and investigational anticancer small molecules within a complex spheroid model of solid tumors. . Complex spheroids include a stromal component modeled by human endothelial cells (HUVEC) and fibroblasts modeled by human mesenchymal stem cells (MSCs). The concentration ranges selected for each drug and investigational agent were based upon clinically achievable concentrations if the clinical Cmax of the agent was known.
Compounds. The drugs and investigational agents: alrizomadlin (APG-115; NSC831270), pelcitoclax (APG-1252; NSC835773), dasminapant (APG-1387;NSC834197), TAK-243 (NSC785004), copanlisib (NSC809693), olaparib (NSC753686), talazoparib (NSC767125), cobimetinib (NSC 768068), eltanexor (KPT-8602, NSC 794443), abemaciclib (NSC 768073), sotorasib (NSC818433), adagrasib (NSC 831453), MRTX-1133 (NSC 836407), Iadademestat (ORY1001, NSC 806812), and RMC-4630 (NSC839698), were obtained from the NCI Developmental Therapeutics Program Chemical Repository. The FDA-approved anticancer drug set is available from the Developmental Therapeutics Program at https://dtp.cancer.gov/organization/dscb/obtaining/available plates.htm. […] The stock solutions were prepared in dimethyl sulfoxide (DMSO, Sigma-Aldrich, St. Louis, MO, cat. D2650) at 800-fold the tested concentration and stored at -70 degrees C prior to their use. All drugs and investigational agents were tested over a range starting from a high concentration at or near the clinical Cmax and decreasing in half-log increments. If the clinical Cmax for an agent had not been determined, the highest concentration tested was 10 microM.
The patient-derived cancer (PDC) cell lines include five colon adenocarcinomas: 186277-243-T-J2-PDC, 616215-338-R-J1-PDC, 439559-082-T-J2-PDC, 463943-066-T-J2-PDC, and 519858-162-T-J1-PDC; three pancreatic carcinomas: 323965-272-R-J2-PDC, 521955-158-R6-J3-PDC, and 521955-158-R2-J5-PDC; two uterine sarcomas: 327498-152-R-J2-PDC and 993429-296-R-J1-PDC; two rhabdomyosarcomas: 755483-174-R-J1-PDC and 772245-204-R-J1-PDC; two soft tissue sarcomas: 126254-015-R-J1-PDC and 494315-158-R-J1-PDC; two malignant fibrous histiocytomas: 317291-083-R-J1-PDC and 596521-263-R-J1-PDC; two breast carcinomas: 171881-019-R-J1-PDC and 885512-296-R-J2-PDC; and one ovarian carcinoma: 6556581-035-R-J-PDC were obtained from the NCI PDMR, (https://pdmr.cancer.gov). The established cell lines HSSY-2 synovial sarcoma (RRID:CVCL 8719), SYO-1 synovial sarcoma (RRID:CVCL_7146), MPNST malignant peripheral neural sheath tumor were obtained from the Sloan Kettering Institute. The following established cell lines were purchased from the American Type Culture Collection (ATCC, Manassas, VA), Sor the received from the NCI repository:, PANC-1 pancreatic carcinoma (CRL-1469, RRID:CVCL_0480), OVCAR-5 ovarian carcinoma (RRID:CVCL_1628), OVCAR-8 ovarian carcinoma (RRID:CVCL_1629), , MCF-7 breast carcinoma (CRL-12584, RRID:CVCL_0031), MDA-MB-231 breast carcinoma (CRL-12532, RRID:CVCL_0062), NCI-H1876 small cell lung carcinoma (CRL-5902, RRID:CVCL_1503), NCI-H510A small cell lung carcinoma (HTB-184, RRID:CVCL_1565), NCI-H1417 (CRL-5869, RRID:CVCL_1469), and NCI-H196 small cell lung carcinoma (CRL-5823, RRID:CVCL_1509). Dr. Peter Houghton (Greehey Children's Cancer Research Institute, University of Texas Health Science Center, San Antonio, TX) provided Rh-18 rhabdomyosarcoma (RRID:CVCL_1659). Pooled donor human umbilical vein endothelial cells (HUVEC, Lonza, cat. CC-2519) and human mesenchymal stem cells (hMSC, Lonza, cat. PT-2501) were purchased from Lonza (Walkersville, MD).
Cell Culture. […]
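Note: compound exposure lasted 7 days.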
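Throughout, for viability, T/C: 100% = DMSO vehicle control wells.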

`C#Cc1c(F)ccc2cc(O)cc(-c3ncc4c(N5CC6CCC(C5)N6)nc(OCC56CCCN5CC(F)C6)nc4c3F)c12` (centres undefined) + Cc1c(S(C)(=O)=O)c(-c2cc(F)cc(N3CCN(c4ccc(NS(=O)(=O)c5ccc(NC(CCN6CCC(C(=O)OCCCP(=O)(O)O)CC6)CSc6ccccc6)c(S(=O)(=O)C(F)(F)F)c5)cc4)CC3)c2)c(-c2ccc(Cl)cc2)n1C(C)C showed an IC50 (second compound 0.0316 µM) of over 10000 nM, an IC50 (second compound 0.1 µM) of over 10000 nM and an IC50 (second compound 0.316 µM) of over 10000 nM. The IC50 (second compound 1 µM) was over 10000 nM, the IC50 (second compound 3.16 µM) was over 10000 nM and the IC50 (second compound 10 µM) was under 31.6 nM. For the same molecule, the viability, T/C (second compound 0.0316 µM, first compound 0.0316 µM) was 96.3%, the viability, T/C (second compound 0.0316 µM, first compound 0.1 µM) was 93.3% and the viability, T/C (second compound 0.0316 µM, first compound 0.316 µM) was 101%. It also gave a viability, T/C (second compound 0.0316 µM, first compound 1 µM) of 102%, a viability, T/C (second compound 0.0316 µM, first compound 3.16 µM) of 103% and a viability, T/C (second compound 0.0316 µM, first compound 10 µM) of 97.5%. The viability, T/C (second compound 0.1 µM, first compound 0.0316 µM) was 101%, the viability, T/C (second compound 0.1 µM, first compound 0.1 µM) was 97.1% and the viability, T/C (second compound 0.1 µM, first compound 0.316 µM) was 101%. It also gave a viability, T/C (second compound 0.1 µM, first compound 1 µM) of 94.1%, a viability, T/C (second compound 0.1 µM, first compound 3.16 µM) of 98% and a viability, T/C (second compound 0.1 µM, first compound 10 µM) of 82.1%. It also gave a viability, T/C (second compound 0.316 µM, first compound 0.0316 µM) of 93.4%, a viability, T/C (second compound 0.316 µM, first compound 0.1 µM) of 92.8% and a viability, T/C (second compound 0.316 µM, first compound 0.316 µM) of 88.4%. It also gave a viability, T/C (second compound 0.316 µM, first compound 1 µM) of 93.1%, a viability, T/C (second compound 0.316 µM, first compound 3.16 µM) of 97.2% and a viability, T/C (second compound 0.316 µM, first compound 10 µM) of 73.4%. It also gave a viability, T/C (second compound 1 µM, first compound 0.0316 µM) of 74.5%, a viability, T/C (second compound 1 µM, first compound 0.1 µM) of 76.5% and a viability, T/C (second compound 1 µM, first compound 0.316 µM) of 80.5%. The viability, T/C (second compound 1 µM, first compound 1 µM) was 80.6%, the viability, T/C (second compound 1 µM, first compound 3.16 µM) was 77.7% and the viability, T/C (second compound 1 µM, first compound 10 µM) was 72.3%. It also gave a viability, T/C (second compound 3.16 µM, first compound 0.0316 µM) of 65.3%, a viability, T/C (second compound 3.16 µM, first compound 0.1 µM) of 64.3% and a viability, T/C (second compound 3.16 µM, first compound 0.316 µM) of 63.3%. For the same molecule, the viability, T/C (second compound 3.16 µM, first compound 1 µM) was 62.1%, the viability, T/C (second compound 3.16 µM, first compound 3.16 µM) was 65.9% and the viability, T/C (second compound 3.16 µM, first compound 10 µM) was 61.3%. The viability, T/C (second compound 10 µM, first compound 0.0316 µM) was 48.9%, the viability, T/C (second compound 10 µM, first compound 0.1 µM) was 47.7% and the viability, T/C (second compound 10 µM, first compound 0.316 µM) was 50.2%. The viability, T/C (second compound 10 µM, first compound 1 µM) was 51.2%, the viability, T/C (second compound 10 µM, first compound 3.16 µM) was 51.2% and the viability, T/C (second compound 10 µM, first compound 10 µM) was 43.9%.

Molecule `NC(=O)C(=Cn1cnc(-c2cc(C(F)(F)F)cc(C(F)(F)F)c2)n1)c1cncnc1` + CNC(C)C(=O)NC1CN(S(=O)(=O)c2cccc(S(=O)(=O)N3CCC4CCC(C(=O)NC(c5ccccc5)c5ccccc5)N4C(=O)C(NC(=O)C(C)NC)C3)c2)CCC2CCC(C(=O)NC(c3ccccc3)c3ccccc3)N2C1=O has an IC50 (second compound 0.00316 µM) of over 300 nM, an IC50 (second compound 0.01 µM) of over 300 nM and an IC50 (second compound 0.0316 µM) of over 300 nM. For the same molecule, the IC50 (second compound 0.1 µM) was over 300 nM, the IC50 (second compound 0.316 µM) was over 300 nM and the IC50 (second compound 1 µM) was over 300 nM. For the same molecule, the viability, T/C (second compound 0.00316 µM, first compound 0.000949 µM) was 84.3%, the viability, T/C (second compound 0.00316 µM, first compound 0.003 µM) was 77.2% and the viability, T/C (second compound 0.00316 µM, first compound 0.00949 µM) was 77.4%. The viability, T/C (second compound 0.00316 µM, first compound 0.03 µM) was 78.7%, the viability, T/C (second compound 0.00316 µM, first compound 0.0949 µM) was 73.2% and the viability, T/C (second compound 0.00316 µM, first compound 0.3 µM) was 64.8%. The viability, T/C (second compound 0.01 µM, first compound 0.000949 µM) was 95.8%, the viability, T/C (second compound 0.01 µM, first compound 0.003 µM) was 87.6% and the viability, T/C (second compound 0.01 µM, first compound 0.00949 µM) was 80.8%. It also gave a viability, T/C (second compound 0.01 µM, first compound 0.03 µM) of 84.9%, a viability, T/C (second compound 0.01 µM, first compound 0.0949 µM) of 85.1% and a viability, T/C (second compound 0.01 µM, first compound 0.3 µM) of 65.3%. For the same molecule, the viability, T/C (second compound 0.0316 µM, first compound 0.000949 µM) was 82.4%, the viability, T/C (second compound 0.0316 µM, first compound 0.003 µM) was 81.2% and the viability, T/C (second compound 0.0316 µM, first compound 0.00949 µM) was 80.4%. It also gave a viability, T/C (second compound 0.0316 µM, first compound 0.03 µM) of 88.3%, a viability, T/C (second compound 0.0316 µM, first compound 0.0949 µM) of 83.9% and a viability, T/C (second compound 0.0316 µM, first compound 0.3 µM) of 66.6%. It also gave a viability, T/C (second compound 0.1 µM, first compound 0.000949 µM) of 90.7%, a viability, T/C (second compound 0.1 µM, first compound 0.003 µM) of 82.6% and a viability, T/C (second compound 0.1 µM, first compound 0.00949 µM) of 82.5%. The viability, T/C (second compound 0.1 µM, first compound 0.03 µM) was 85%, the viability, T/C (second compound 0.1 µM, first compound 0.0949 µM) was 80.5% and the viability, T/C (second compound 0.1 µM, first compound 0.3 µM) was 67.3%. The viability, T/C (second compound 0.316 µM, first compound 0.000949 µM) was 85.2%, the viability, T/C (second compound 0.316 µM, first compound 0.003 µM) was 82.4% and the viability, T/C (second compound 0.316 µM, first compound 0.00949 µM) was 82.5%. For the same molecule, the viability, T/C (second compound 0.316 µM, first compound 0.03 µM) was 78.9%, the viability, T/C (second compound 0.316 µM, first compound 0.0949 µM) was 80.3% and the viability, T/C (second compound 0.316 µM, first compound 0.3 µM) was 64.2%. For the same molecule, the viability, T/C (second compound 1 µM, first compound 0.000949 µM) was 78.2%, the viability, T/C (second compound 1 µM, first compound 0.003 µM) was 91.9% and the viability, T/C (second compound 1 µM, first compound 0.00949 µM) was 78.5%. For the same molecule, the viability, T/C (second compound 1 µM, first compound 0.03 µM) was 77.4%, the viability, T/C (second compound 1 µM, first compound 0.0949 µM) was 73.3% and the viability, T/C (second compound 1 µM, first compound 0.3 µM) was 58.5%.

Reference: PubChem BioAssay AID1963422 (Molecular Pharmacology Branch, DTP, NCI, 2024)
